Experimental data reported in the NIST ThermoML archive (doi:10.1016/j.jct.2009.09.013).
Numbers after ± are expanded uncertainties.

Experiment: xn = mol fraction of the nth substance listed
Settings: 101 kPa, Liquid; for speed of sound: Sing-around technique in a fixed-path interferometer; for kinematic viscosity: Vibrating wire viscometry; for mass density: Vibrating tube method

OCCCCO [1,4-butanediol] + CCCCO
Settings	kinematic viscosity [m2/s]	mass density [kg/m3]	speed of sound [m/s]
293.02 K, x1 = 1	–	–	1614.9 ± 2.4
293.03 K, x1 = 0.7946	–	–	1537.8 ± 2.3
293.05 K, x1 = 0.6478	–	–	1482.1 ± 2.3
293.05 K, x1 = 0.9234	–	–	1586.4 ± 2.4
293.06 K, x1 = 0.3571	–	–	1375.1 ± 2.2
293.06 K, x1 = 0.4979	–	–	1426 ± 2.3
293.07 K, x1 = 0.2	–	–	1321 ± 2.2
293.08 K, x1 = 0.051	–	–	1272.7 ± 2.2
298.01 K, x1 = 1	6.99e-05 ± 1.5e-06	–	–
298.06 K, x1 = 0.4592	1.56e-05 ± 3.3e-07	–	–
298.06 K, x1 = 1	–	–	1602.6 ± 2.4
298.07 K, x1 = 0.1507	5.44e-06 ± 1.2e-07	–	–
298.07 K, x1 = 0.9374	6e-05 ± 1.3e-06	–	–
298.08 K, x1 = 0.2	–	–	1304.8 ± 2.2
298.08 K, x1 = 0.5676	2.18e-05 ± 4.6e-07	–	–
298.08 K, x1 = 0.6478	–	–	1468.3 ± 2.3
298.08 K, x1 = 0.7946	–	–	1524.7 ± 2.3
298.09 K, x1 = 0.3571	–	–	1359.7 ± 2.2
298.09 K, x1 = 0.7435	3.62e-05 ± 7.7e-07	–	–
298.1 K, x1 = 0.051	–	–	1255.7 ± 2.2
298.1 K, x1 = 0.4979	–	–	1411.3 ± 2.3
298.1 K, x1 = 0.6576	2.84e-05 ± 6.1e-07	–	–
298.1 K, x1 = 0.8108	4.34e-05 ± 9.3e-07	–	–
298.1 K, x1 = 0.9234	–	–	1573.9 ± 2.4
298.14 K, x1 = 0.2986	9.22e-06 ± 2e-07	–	–
298.15 K, x1 = 0.1507	–	837.834 ± 0.27	–
298.15 K, x1 = 0.2986	–	869.164 ± 0.27	–
298.15 K, x1 = 0.4592	–	902.986 ± 0.27	–
298.15 K, x1 = 0.5676	–	925.394 ± 0.27	–
298.15 K, x1 = 0.6576	–	943.952 ± 0.28	–
298.15 K, x1 = 0.7435	–	961.447 ± 0.28	–
298.15 K, x1 = 0.8108	–	974.991 ± 0.29	–
298.15 K, x1 = 0.9374	–	1000.24 ± 0.3	–
298.15 K, x1 = 1	–	1012.72 ± 0.24	–
302.51 K, x1 = 1	5.63e-05 ± 1.2e-06	–	–
302.99 K, x1 = 0.9374	4.76e-05 ± 1e-06	–	–
303 K, x1 = 0.6576	2.33e-05 ± 5e-07	–	–
303.01 K, x1 = 0.1507	4.68e-06 ± 1e-07	–	–
303.01 K, x1 = 0.5676	1.8e-05 ± 3.8e-07	–	–
303.01 K, x1 = 0.7435	2.93e-05 ± 6.3e-07	–	–
303.01 K, x1 = 0.8108	3.49e-05 ± 7.5e-07	–	–
303.04 K, x1 = 0.4592	1.3e-05 ± 2.8e-07	–	–
303.06 K, x1 = 0.2986	7.83e-06 ± 1.7e-07	–	–
303.15 K, x1 = 0.1507	–	834.13 ± 0.27	–
303.15 K, x1 = 0.2986	–	865.589 ± 0.27	–
303.15 K, x1 = 0.4592	–	899.553 ± 0.27	–
303.15 K, x1 = 0.5676	–	922.055 ± 0.28	–
303.15 K, x1 = 0.6576	–	940.685 ± 0.28	–
303.15 K, x1 = 0.7435	–	958.245 ± 0.28	–
303.15 K, x1 = 0.8108	–	971.848 ± 0.29	–
303.15 K, x1 = 0.9374	–	997.175 ± 0.3	–
303.15 K, x1 = 1	–	1009.69 ± 0.24	–
303.3 K, x1 = 1	–	–	1590.1 ± 2.3
303.36 K, x1 = 0.2	–	–	1287.8 ± 2.2
303.36 K, x1 = 0.4979	–	–	1396.1 ± 2.3
303.36 K, x1 = 0.7946	–	–	1511 ± 2.3
303.36 K, x1 = 0.9234	–	–	1561 ± 2.4
303.37 K, x1 = 0.051	–	–	1238 ± 2.2
303.37 K, x1 = 0.3571	–	–	1343.7 ± 2.2
303.39 K, x1 = 0.6478	–	–	1453.8 ± 2.3
308.06 K, x1 = 1	4.37e-05 ± 9.4e-07	–	–
308.15 K, x1 = 0.1507	–	830.397 ± 0.27	–
308.15 K, x1 = 0.2986	–	861.995 ± 0.27	–
308.15 K, x1 = 0.4592	–	896.107 ± 0.27	–
308.15 K, x1 = 0.5676	–	918.702 ± 0.28	–
308.15 K, x1 = 0.6576	–	937.408 ± 0.28	–
308.15 K, x1 = 0.7435	–	955.036 ± 0.28	–
308.15 K, x1 = 0.8108	–	968.692 ± 0.29	–
308.15 K, x1 = 0.9374	–	994.107 ± 0.3	–
308.15 K, x1 = 1	–	1006.66 ± 0.24	–
308.16 K, x1 = 0.9374	3.79e-05 ± 8.1e-07	–	–
308.17 K, x1 = 0.6576	1.9e-05 ± 4.1e-07	–	–
308.18 K, x1 = 0.4592	1.09e-05 ± 2.3e-07	–	–
308.19 K, x1 = 0.8108	2.8e-05 ± 6e-07	–	–
308.22 K, x1 = 0.1507	3.96e-06 ± 8.4e-08	–	–
308.22 K, x1 = 0.2986	6.63e-06 ± 1.4e-07	–	–
308.23 K, x1 = 0.5676	1.48e-05 ± 3.2e-07	–	–
308.24 K, x1 = 0.7435	2.37e-05 ± 5.1e-07	–	–
308.32 K, x1 = 0.7946	–	–	1498.4 ± 2.3
308.32 K, x1 = 1	–	–	1578.3 ± 2.3
308.33 K, x1 = 0.051	–	–	1221.5 ± 2.2
308.33 K, x1 = 0.9234	–	–	1548.9 ± 2.4
308.35 K, x1 = 0.3571	–	–	1328.7 ± 2.2
308.35 K, x1 = 0.4979	–	–	1381.9 ± 2.3
308.36 K, x1 = 0.2	–	–	1272 ± 2.2
308.38 K, x1 = 0.6478	–	–	1440.3 ± 2.3
313.12 K, x1 = 1	3.51e-05 ± 7.5e-07	–	–
313.15 K, x1 = 0.1507	–	826.639 ± 0.27	–
313.15 K, x1 = 0.2986	–	858.379 ± 0.27	–
313.15 K, x1 = 0.4592	–	892.64 ± 0.28	–
313.15 K, x1 = 0.5676	–	915.331 ± 0.28	–
313.15 K, x1 = 0.6576	–	934.116 ± 0.28	–
313.15 K, x1 = 0.7435	–	951.814 ± 0.28	–
313.15 K, x1 = 0.8108	–	965.521 ± 0.29	–
313.15 K, x1 = 0.9374	–	991.027 ± 0.3	–
313.15 K, x1 = 1	–	1003.63 ± 0.23	–
313.19 K, x1 = 0.9374	3.06e-05 ± 6.6e-07	–	–
313.2 K, x1 = 0.6757	1.57e-05 ± 3.3e-07	–	–
313.21 K, x1 = 0.5676	1.24e-05 ± 2.6e-07	–	–
313.23 K, x1 = 0.4592	9.16e-06 ± 1.9e-07	–	–
313.23 K, x1 = 0.7435	1.95e-05 ± 4.2e-07	–	–
313.23 K, x1 = 0.8108	2.29e-05 ± 4.9e-07	–	–
313.26 K, x1 = 0.1507	3.36e-06 ± 7.2e-08	–	–
313.29 K, x1 = 0.2986	5.65e-06 ± 1.2e-07	–	–
313.32 K, x1 = 0.051	–	–	1204.9 ± 2.2
313.33 K, x1 = 0.7946	–	–	1485.7 ± 2.3
313.35 K, x1 = 1	–	–	1566.5 ± 2.3
313.36 K, x1 = 0.3571	–	–	1313.8 ± 2.2
313.36 K, x1 = 0.9234	–	–	1536.8 ± 2.4
313.37 K, x1 = 0.2	–	–	1256.2 ± 2.2
313.37 K, x1 = 0.4979	–	–	1367.6 ± 2.3
313.39 K, x1 = 0.6478	–	–	1426.9 ± 2.3
318.15 K, x1 = 0.1507	–	822.854 ± 0.27	–
318.15 K, x1 = 0.2986	–	854.74 ± 0.27	–
318.15 K, x1 = 0.4592	–	889.157 ± 0.28	–
318.15 K, x1 = 0.5676	–	911.95 ± 0.28	–
318.15 K, x1 = 0.6576	–	930.812 ± 0.28	–
318.15 K, x1 = 0.7435	–	948.578 ± 0.28	–
318.15 K, x1 = 0.8108	–	962.345 ± 0.29	–
318.15 K, x1 = 0.9374	–	987.943 ± 0.3	–
318.15 K, x1 = 1	–	1000.58 ± 0.23	–
318.29 K, x1 = 0.051	–	–	1188.5 ± 2.2
318.3 K, x1 = 0.7946	–	–	1473.1 ± 2.3
318.35 K, x1 = 0.3571	–	–	1299.1 ± 2.2
318.35 K, x1 = 0.4979	–	–	1353.5 ± 2.3
318.35 K, x1 = 1	–	–	1554.8 ± 2.3
318.36 K, x1 = 0.9234	–	–	1525 ± 2.4
318.38 K, x1 = 0.2	–	–	1240.6 ± 2.2
318.38 K, x1 = 0.6478	–	–	1413.6 ± 2.3
318.56 K, x1 = 0.8108	1.87e-05 ± 4e-07	–	–
318.72 K, x1 = 1	2.79e-05 ± 6e-07	–	–
318.73 K, x1 = 0.9374	2.45e-05 ± 5.3e-07	–	–
318.74 K, x1 = 0.6575	1.29e-05 ± 2.7e-07	–	–
318.75 K, x1 = 0.5676	1.03e-05 ± 2.2e-07	–	–
318.75 K, x1 = 0.7435	1.59e-05 ± 3.4e-07	–	–
318.76 K, x1 = 0.4592	7.65e-06 ± 1.6e-07	–	–
318.8 K, x1 = 0.1507	2.79e-06 ± 5.9e-08	–	–
318.81 K, x1 = 0.2986	4.76e-06 ± 1e-07	–	–

CCCCO [butan-1-ol] + OCCCCO
x2 = 0
Settings	kinematic viscosity [m2/s]	mass density [kg/m3]	speed of sound [m/s]
293.03 K	–	–	1257 ± 2.1
298.02 K	3.24e-06 ± 6.7e-08	–	–
298.07 K	–	–	1239.7 ± 2.1
298.15 K	–	805.77 ± 0.16	–
302.47 K	2.9e-06 ± 6e-08	–	–
303.15 K	–	801.928 ± 0.16	–
303.35 K	–	–	1221.6 ± 2.1
308 K	2.53e-06 ± 5.3e-08	–	–
308.15 K	–	798.054 ± 0.16	–
308.34 K	–	–	1204.8 ± 2.1
312.96 K	2.25e-06 ± 4.7e-08	–	–
313.15 K	–	794.146 ± 0.17	–
313.37 K	–	–	1188 ± 2.1
318.15 K	–	790.196 ± 0.17	–
318.37 K	–	–	1171.4 ± 2.1
318.61 K	1.99e-06 ± 4.2e-08	–	–
